Experimental data from patent US20240425523A1, “Compounds for the Degradation of EGFR Kinase” (Beigene Switzerland GMBH, priority 2023, published 2024).

What was measured:
Type in all cases: cell-based
[1] = target: p-EGFR Del19/C797S (H1975-clone #23 cells) (Homo sapiens, UniProt P00533); assay: Cell p-EGFR inhibition assay, HTRF, H1975-clone#23 (DEL19/C797S) cells; details: 16 h treatment; for Imax (%): maximum percentage of pEGFR inhibition; for IC50: pEGFR inhibition
Summary of the method: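 Phospho-EGFR read by overnight HTRF on lysates, normalized to DMSO-treated high control; IC50, Hill slope and Imax fitted. Compounds were applied for 16 h (10 uM top, 5-fold steps, 8 doses) to an H1975 single clone carrying only exogenous Del19/C797S EGFR after sgRNA knockout of endogenous copies.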

[2] = target: T1, EGFR L858R (BaF3-L858R cells) (Homo sapiens, UniProt P00533, L858R); assay: Cell degradation of EGFR, HTRF assay, BaF3-L858R cells; details: 16 h treatment; for DC50: EGFR degradation; for Dmax: maximum percentage of degradation
T1 construct: host or cells: BaF3
Summary of the method: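 BaF3-L858R cells treated 16 h at 37° C, 5% CO2 with compound (top 10 uM final, 5-fold, 8 doses, 0.1% DMSO). DC50 from four-parameter fit; Dmax is maximum percent degradation.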

[3] = target: T2, EGFR-L858R/C797S (H1975-clone #8 cells) (Homo sapiens, UniProt P00533, C797S/L858R); assay: Cell degradation of EGFR, HTRF assay, H1975-clone#8 (L858R/C797S) cells; details: 16 h treatment; for DC50: EGFR degradation; for Dmax: maximum percentage of degradation
T2 construct: expressed in transfected cells; host or cells: H1975 (endogenous EGFR knocked out, clone #8)

[4] = target: T3, p-EGFR L858R (BaF3-L858R cells) (Homo sapiens, UniProt P00533, L858R); assay: Cell p-EGFR inhibition assay, HTRF, BaF3-L858R cells; details: 16 h treatment; for Imax (%): maximum percentage of pEGFR inhibition; for IC50: pEGFR inhibition
T3 construct: host or cells: BaF3
Summary of the method: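 BaF3-L858R cells treated 16 h at 37 °C, 5% CO2 with compound from 10 uM top, 5-fold dilutions, 8 doses, in 0.1% DMSO medium. Lysates read overnight by HTRF p-EGFR antibodies; IC50 fitted to four-parameter curve against DMSO high control.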

Structure (SMILES)	Imax (%) [1] [%]	IC50 [1] [nM]	DC50 [2] [nM]	Dmax [2] [%]	DC50 [3] [nM]	Dmax [3] [%]	Imax (%) [4] [%]	IC50 [4] [nM]
Cc1cc2cc(n1)-c1cnn(C)c1OC[C@H]1CCC(C1)CN1/C(=N/C2=O)Nc2ccc(N3CCC(N4CCC(Oc5cc(F)c([C@H]6CCC(=O)NC6=O)c(F)c5)CC4)CC3)cc21 [Example 113, (R)-3-(4-((1′-((7^1R,7^3S,E)-1^1,2^6-dimethyl-3-oxo-5^2,5^3-dihydro-1^1H,5^1H-9-oxa-4-aza-5(2,1)-benzo[d]imidazola-2(2,4)-pyridina-1(4,5)-pyrazola-7(1,3)-cyclopentanacyclononaphane-5^6-yl)-[1,4′-bipiperidin]-4-yl)oxy)-2,6-difluorophenyl)piperidine-2,6-dione]	99	0.7	3.49	70.5	2.69	77.3	94.6	17.1
Cc1cc2cc(n1)-c1cnn(C)c1OC[C@H]1CCC(C1)CN1/C(=N/C2=O)Nc2ccc(N3CCN(C4(CO)CCN(c5ccc(C6CCC(=O)NC6=O)nc5C)CC4)CC3)cc21 (some centres unmarked) [Example 114, 3-(5-(4-(4-((7^1R,7^3S,E)-1^1,2^6-dimethyl-3-oxo-5^2,5^3-dihydro-1^1H,5^1H-9-oxa-4-aza-5(2,1)-benzo[d]imidazola-2(2,4)-pyridina-1(4,5)-pyrazola-7(1,3)-cyclopentanacyclononaphane-5^6-yl)piperazin-1-yl)-4-(hydroxymethyl)piperidin-1-yl)-6-methylpyridin-2-yl)piperidine-2,6-dione]	100.5	0.4	3.11	75.7	1.09	82	98.4	7.3
Cc1cc2cc(n1)-c1cnn(C)c1OC[C@H]1CCC(C1)CN1/C(=N/C2=O)Nc2ccc(N3CCN([C@@H]4CCN(c5ccc(OC6CCC(=O)NC6=O)cc5F)C[C@@H]4F)CC3)cc21 (stereo partly drawn) [Example 115, 3-(4-((3S,4R)-4-(4-((7^1R,7^3S,E)-1^1,2^6-dimethyl-3-oxo-5^2,5^3-dihydro-1^1H,5^1H-9-oxa-4-aza-5(2,1)-benzo[d]imidazola-2(2,4)-pyridina-1(4,5)-pyrazola-7(1,3)-cyclopentanacyclononaphane-5^6-yl)piperazin-1-yl)-3-fluoropiperidin-1-yl)-3-fluorophenoxy)piperidine-2,6-dione]	99.8	1.3	1.6	81.9	2.84	81.1	97.7	3.9
Cc1cc2cc(n1)-c1cnn(C)c1OC[C@H]1CCC(C1)CN1/C(=N/C2=O)Nc2ccc(N3CC4(C3)CN(C3CCN(c5cc(F)c([C@H]6CCC(=O)NC6=O)c(F)c5)CC3)C4)cc21 [Example 117, (R)-3-(4-(4-(6-((7^1R,7^3S,E)-1^1,2^6-dimethyl-3-oxo-5^2,5^3-dihydro-1^1H,5^1H-9-oxa-4-aza-5(2,1)-benzo[d]imidazola-2(2,4)-pyridina-1(4,5)-pyrazola-7(1,3)-cyclopentanacyclononaphane-5^6-yl)-2,6-diazaspiro[3.3]heptan-2-yl)piperidin-1-yl)-2,6-difluorophenyl)piperidine-2,6-dione]	100	0.6	1.11	78	0.92	80.6	97.1	14.9
COC[C@@H]1CN(c2ccc3c(c2)N2CC4CC[C@H](COc5c(cnn5C)-c5cc(cc(C)n5)C(=O)/N=C/2N3)C4)CCN1C1CCN(c2ccc(NC3CCC(=O)NC3=O)cc2C)CC1 (stereo partly drawn) [Example 118, 3-((4-(4-((S)-4-((7^1R,7^3S,E)-1^1,2^6-dimethyl-3-oxo-5^2,5^3-dihydro-1^1H,5^1H-9-oxa-4-aza-5(2,1)-benzo[d]imidazola-2(2,4)-pyridina-1(4,5)-pyrazola-7(1,3)-cyclopentanacyclononaphane-5^6-yl)-2-(methoxymethyl)piperazin-1-yl)piperidin-1-yl)-3-methylphenyl)amino)piperidine-2,6-dione]	100.2	1.3	2.64	79	5.97	73.7	98.5	7.3
Cc1cc2cc(n1)-c1cnn(C)c1OC[C@H]1CCC(C1)CN1/C(=N/C2=O)Nc2ccc(N3CCN(C4CCN(c5cc(F)c(C6CCC(=O)NC6=O)c(F)c5)CC4)[C@@H](C)C3)cc21 (stereo partly drawn) [Example 119, (R)-3-(4-(4-((S)-4-((7^1R,7^3S,E)-1^1,2^6-dimethyl-3-oxo-5^2,5^3-dihydro-1^1H,5^1H-9-oxa-4-aza-5(2,1)-benzo[d]imidazola-2(2,4)-pyridina-1(4,5)-pyrazola-7(1,3)-cyclopentanacyclononaphane-5^6-yl)-2-methylpiperazin-1-yl)piperidin-1-yl)-2,6-difluorophenyl)piperidine-2,6-dione]	100.8	0.6	2.47	77	2.3	74.6	94.3	18.2
Cc1cc2cc(n1)-c1cnn(C)c1OC[C@H]1CCC(C1)CN1/C(=N/C2=O)Nc2ccc(N3CCC4(CC3)CN(C3CCN(c5cc(F)c([C@H]6CCC(=O)NC6=O)c(F)c5)CC3)C4)cc21 [Example 120, (R)-3-(4-(4-(7-((7^1R,7^3S,E)-1^1,2^6-dimethyl-3-oxo-5^2,5^3-dihydro-1^1H,5^1H-9-oxa-4-aza-5(2,1)-benzo[d]imidazola-2(2,4)-pyridina-1(4,5)-pyrazola-7(1,3)-cyclopentanacyclononaphane-5^6-yl)-2,7-diazaspiro[3.5]nonan-2-yl)piperidin-1-yl)-2,6-difluorophenyl)piperidine-2,6-dione]	99.1	1.1	3.14	70.8	0.55	65.7	94.2	15.6
COC[C@@H]1CN(c2ccc3c(c2)N2C[C@@H]4CCC(COc5c(c(C)nn5C)-c5cc(cc(C)n5)C(=O)/N=C/2N3)C4)CCN1C1CN(C2CCN(c3cc(F)c([C@H]4CCC(=O)NC4=O)c(F)c3)CC2)C1 [Example 121, (R)-3-(2,6-difluoro-4-(4-(3-((S)-2-(methoxymethyl)-4-((7R,7^3S,E)-1^1,1^3 2^6-trimethyl-3-oxo-5^2,5^3-dihydro-1^1H,5^1H-9-oxa-4-aza-5(2,1)-benzo[d]imidazola-2(2,4)-pyridina-1(4,5)-pyrazola-7(1,3)-cyclopentanacyclononaphane-5^6-yl)piperazin-1-yl)azetidin-1-yl)piperidin-1-yl)phenyl)piperidine-2,6-dione]	100.8	0.7	1.06	82.2	0.98	88.3	96.6	6
Cc1cc2cc(n1)-c1cnn(CCO)c1OC[C@H]1CCC(C1)CN1/C(=N/C2=O)Nc2ccc(N3CCN(C4CCN(c5cc(F)c([C@H]6CCC(=O)NC6=O)c(F)c5)CC4)CC3)cc21 [Example 122, (R)-3-(2,6-difluoro-4-(4-(4-((7^1R,7^3S,E)-1^1-(2-hydroxyethyl)-2^6-methyl-3-oxo-5^2,5^3-dihydro-1^1H,5^1H-9-oxa-4-aza-5(2,1)-benzo[d]imidazola-2(2,4)-pyridina-1(4,5)-pyrazola-7(1,3)-cyclopentanacyclononaphane-5^6-yl)piperazin-1-yl)piperidin-1-yl)phenyl)piperidine-2,6-dione]	98.9	0.5	4.53	70.7	3.24	52.2	96.8	11
Cc1cc2cc(n1)-c1cnn(C)c1OC[C@H]1CCC(C1)CN1/C(=N/C2=O)Nc2ccc(N3CCN(C4CCN(c5ccc(NC6CCC(=O)NC6=O)cc5C)CC4)CC3)cc21 (some centres unmarked) [Example 123, 3-((4-(4-(4-((7^1R,7^3S,E)-1^1,2^6-dimethyl-3-oxo-5^2,5^3-dihydro-1^1H,5^1H-9-oxa-4-aza-5(2,1)-benzo[d]imidazola-2(2,4)-pyridina-1(4,5)-pyrazola-7(1,3)-cyclopentanacyclononaphane-5^6-yl)piperazin-1-yl)piperidin-1-yl)-3-methylphenyl)amino)piperidine-2,6-dione]	100.4	0.7	3.37	77.1	2.14	81.6	95.3	16.3
